Values of other authors, collected in patent publication US20230226068A1, “METHOD, SYSTEM, FORMULATION AND KIT FOR THE TREATMENT OF ONYCHOMYCOSIS” (priority 2021, published 2023).
Where two headings read alike, the source gives them in different places.

Conditions: for side effects: po

SMILES | safety profile (in vivo) | side effects (in vivo) | other results
CCC(C)(C)c1ccc(CC(C)CN2C[C@@H](C)O[C@@H](C)C2)cc1 (stereo partly shown) [Amorolfine] | local skin irritations |  | 
Cc1cc(C2CCCCC2)n(O)c(=O)c1 [Ciclopirox] | local skin irritations |  | 
C=C1CCN([C@H](C)[C@](O)(Cn2cncn2)c2ccc(F)cc2F)CC1 [Efinaconazole] | local skin irritations |  | 
OC(Cn1cncn1)(Cn1cncn1)c1ccc(F)cc1F [Fluconazole] |  | liver enzyme abnormalities, headaches, as well as gastrointestinal problems or rashes | 
CCC(C)n1ncn(-c2ccc(N3CCN(c4ccc(OCC5COC(Cn6cncn6)(c6ccc(Cl)cc6Cl)O5)cc4)CC3)cc2)c1=O (stereo not shown) [Itraconazole] |  | liver enzyme abnormalities, headaches, as well as gastrointestinal problems or rashes | 
OB1OCc2cc(F)ccc21 [Tavaborole] |  |  | safety profile (topical treatment): local skin irritations
CN(C/C=C/C#CC(C)(C)C)Cc1cccc2ccccc12 [Terbinafine] |  | liver enzyme abnormalities, headaches, as well as gastrointestinal problems or rashes | 
